# Assay results from patent US20190307843A1, “SINGLE DOSE METHODS FOR PREVENTING AND TREATING FUNGAL INFECTIONS” (Cidara Therapeutics, Inc., priority 2016, published 2019).
# Where two headings read alike, the source gives them in different places.
# Test system: Candida auris strains
# Assay: Candida auris antifungal susceptibility testing (CLSI M27-A3), 38 strains
# Type: cell-based
# Details: for MIC: Candidozyma auris, read-out: MIC
smiles,measurement,setting,value
"CC[C@H](C)C[C@H](C)CCCCCCCCC(=O)N[C@H]1C[C@@H](O)[C@@H](NCCN)NC(=O)[C@@H]2[C@@H](O)CCN2C(=O)[C@H]([C@H](O)CCN)NC(=O)[C@H]([C@H](O)[C@@H](O)c2ccc(O)cc2)NC(=O)[C@@H]2C[C@@H](O)CN2C(=O)[C@H]([C@@H](C)O)NC1=O [CAS, caspofungin]",MIC,"24 h, strain 1 VPCI 669/P/12, 24 h",0.25 µg/mL
same,MIC,"24 h, strain 2 VCPI 671/P/12, 24 h",0.25 µg/mL
same,MIC,"24 h, strain 3 VCPI 674/P/12, 24 h",0.25 µg/mL
same,MIC,"24 h, strain 4 VCPI 683/P/12, 24 h",0.25 µg/mL
same,MIC,"24 h, strain 5 VCPI 692/P/12, 24 h",0.25 µg/mL
same,MIC,"24 h, strain 6 VCPI 712/P/12, 24 h",0.25 µg/mL
same,MIC,"24 h, strain 7 VCPI 471/P/13, 24 h",1 µg/mL
same,MIC,"24 h, strain 8 VCPI 475/P/13, 24 h",0.25 µg/mL
same,MIC,"24 h, strain 9 VCPI 478/P/13, 24 h",0.25 µg/mL
same,MIC,"24 h, strain 10 VCPI 479/P/13, 24 h",0.5 µg/mL
same,MIC,"24 h, strain 11 VCPI 480/P/13, 24 h",0.5 µg/mL
same,MIC,"24 h, strain 12 VCPI 482/P/13, 24 h",0.5 µg/mL
same,MIC,"24 h, strain 13 VCPI 483/P/13, 24 h",0.25 µg/mL
same,MIC,"24 h, strain 14 VCPI 1130/P/13, 24 h",0.5 µg/mL
same,MIC,"24 h, strain 15 VCPI 1132/P/13, 24 h",0.5 µg/mL
same,MIC,"24 h, strain 16 VCPI 1133/P/13, 24 h",16 µg/mL
same,MIC,"24 h, strain 17 VCPI 105/P/14, 24 h",0.5 µg/mL
same,MIC,"24 h, strain 18 VCPI 107/P/14, 24 h",0.25 µg/mL
same,MIC,"24 h, strain 19 VCPI 510/P/14, 24 h",0.5 µg/mL
same,MIC,"24 h, strain 20 VCPI 511/P/14, 24 h",0.5 µg/mL
same,MIC,"24 h, strain 21 VCPI 512/P/14, 24 h",0.5 µg/mL
same,MIC,"24 h, strain 22 VCPI 513/P/14, 24 h",1 µg/mL
same,MIC,"24 h, strain 23 VCPI 514/P/14, 24 h",0.5 µg/mL
same,MIC,"24 h, strain 24 VCPI 250/P/14, 24 h",0.5 µg/mL
same,MIC,"24 h, strain 25 VCPI 265/P/14, 24 h",8 µg/mL
same,MIC,"24 h, strain 26 VCPI 266/P/14, 24 h",0.125 µg/mL
same,MIC,"24 h, strain 27 VCPI 462/P/14, 24 h",8 µg/mL
same,MIC,"24 h, strain 28 VCPI 463/P/14, 24 h",0.5 µg/mL
same,MIC,"24 h, strain 29 VCPI 467/P/14, 24 h",0.125 µg/mL
same,MIC,"24 h, strain 30 VCPI 471a/P/14, 24 h",4 µg/mL
same,MIC,"24 h, strain 31 VCPI 478/P/14, 24 h",1 µg/mL
same,MIC,"24 h, strain 32 VCPI 518/P/14, 24 h",0.5 µg/mL
same,MIC,"24 h, strain 33 VCPI 550/P/14, 24 h",0.125 µg/mL
same,MIC,"24 h, strain 34 VCPI 714/P/14, 24 h",0.5 µg/mL
same,MIC,"24 h, strain 35 VCPI 717/P/14, 24 h",0.5 µg/mL
same,MIC,"24 h, strain 36 VCPI 1060/P/14, 24 h",0.5 µg/mL
same,MIC,"24 h, strain 37 VCPI 74/P/15, 24 h",0.5 µg/mL
same,MIC,"24 h, strain 38 VCPI 213/P/15, 24 h",0.5 µg/mL
same,MIC,"48 h, strain 1 VPCI 669/P/12, 48 h",> 16 µg/mL
same,MIC,"48 h, strain 2 VCPI 671/P/12, 48 h",> 16 µg/mL
same,MIC,"48 h, strain 3 VCPI 674/P/12, 48 h",0.25 µg/mL
same,MIC,"48 h, strain 4 VCPI 683/P/12, 48 h",> 16 µg/mL
same,MIC,"48 h, strain 5 VCPI 692/P/12, 48 h",> 16 µg/mL
same,MIC,"48 h, strain 6 VCPI 712/P/12, 48 h",0.25 µg/mL
same,MIC,"48 h, strain 7 VCPI 471/P/13, 48 h",> 16 µg/mL
same,MIC,"48 h, strain 8 VCPI 475/P/13, 48 h",0.25 µg/mL
same,MIC,"48 h, strain 9 VCPI 478/P/13, 48 h",> 16 µg/mL
same,MIC,"48 h, strain 10 VCPI 479/P/13, 48 h",> 16 µg/mL
same,MIC,"48 h, strain 11 VCPI 480/P/13, 48 h",> 16 µg/mL
same,MIC,"48 h, strain 12 VCPI 482/P/13, 48 h",> 16 µg/mL
same,MIC,"48 h, strain 13 VCPI 483/P/13, 48 h",0.25 µg/mL
same,MIC,"48 h, strain 14 VCPI 1130/P/13, 48 h",0.5 µg/mL
same,MIC,"48 h, strain 15 VCPI 1132/P/13, 48 h",0.5 µg/mL
same,MIC,"48 h, strain 16 VCPI 1133/P/13, 48 h",> 16 µg/mL
same,MIC,"48 h, strain 17 VCPI 105/P/14, 48 h",1 µg/mL
same,MIC,"48 h, strain 18 VCPI 107/P/14, 48 h",0.5 µg/mL
same,MIC,"48 h, strain 19 VCPI 510/P/14, 48 h",> 16 µg/mL
same,MIC,"48 h, strain 20 VCPI 511/P/14, 48 h",> 16 µg/mL
same,MIC,"48 h, strain 21 VCPI 512/P/14, 48 h",1 µg/mL
same,MIC,"48 h, strain 22 VCPI 513/P/14, 48 h",> 16 µg/mL
same,MIC,"48 h, strain 23 VCPI 514/P/14, 48 h",1 µg/mL
same,MIC,"48 h, strain 24 VCPI 250/P/14, 48 h",0.5 µg/mL
same,MIC,"48 h, strain 25 VCPI 265/P/14, 48 h",> 16 µg/mL
same,MIC,"48 h, strain 26 VCPI 266/P/14, 48 h",0.125 µg/mL
same,MIC,"48 h, strain 27 VCPI 462/P/14, 48 h",> 16 µg/mL
same,MIC,"48 h, strain 28 VCPI 463/P/14, 48 h",0.5 µg/mL
same,MIC,"48 h, strain 29 VCPI 467/P/14, 48 h",0.5 µg/mL
same,MIC,"48 h, strain 30 VCPI 471a/P/14, 48 h",> 16 µg/mL
same,MIC,"48 h, strain 31 VCPI 478/P/14, 48 h",2 µg/mL
same,MIC,"48 h, strain 32 VCPI 518/P/14, 48 h",16 µg/mL
same,MIC,"48 h, strain 33 VCPI 550/P/14, 48 h",0.25 µg/mL
same,MIC,"48 h, strain 34 VCPI 714/P/14, 48 h",> 16 µg/mL
same,MIC,"48 h, strain 35 VCPI 717/P/14, 48 h",> 16 µg/mL
same,MIC,"48 h, strain 36 VCPI 1060/P/14, 48 h",> 16 µg/mL
same,MIC,"48 h, strain 37 VCPI 74/P/15, 48 h",> 16 µg/mL
same,MIC,"48 h, strain 38 VCPI 213/P/15, 48 h",> 16 µg/mL
same,number of resistant isolates,of 38 C. auris isolates,4
